{"source": "patent US20250230193A1", "about": "“CYCLIC COMPOUND HAVING SELECTIVE KRAS INHIBITORY EFFECT ON HRAS AND NRAS” (CHUGAI SEIYAKU KABUSHIKI KAISHA, priority 2022, published 2025)", "key": {"[1]": {"target": "GDP-bound NRAS wild-type protein (Homo sapiens, UniProt P01111)", "sequence (P01111 whole entry)": "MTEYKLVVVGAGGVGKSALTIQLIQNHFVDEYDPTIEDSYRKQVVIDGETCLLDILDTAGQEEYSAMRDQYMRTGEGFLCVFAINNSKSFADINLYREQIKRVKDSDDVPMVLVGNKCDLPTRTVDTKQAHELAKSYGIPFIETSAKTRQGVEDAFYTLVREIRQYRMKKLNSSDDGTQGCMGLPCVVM", "assay": "Binding to NRAS by surface plasmon resonance (SPR), Single Cycle Kinetics", "conditions": "SPR"}, "[2]": {"target": "GDP-bound HRAS wild-type protein (Homo sapiens, UniProt P01112)", "sequence (P01112 whole entry)": "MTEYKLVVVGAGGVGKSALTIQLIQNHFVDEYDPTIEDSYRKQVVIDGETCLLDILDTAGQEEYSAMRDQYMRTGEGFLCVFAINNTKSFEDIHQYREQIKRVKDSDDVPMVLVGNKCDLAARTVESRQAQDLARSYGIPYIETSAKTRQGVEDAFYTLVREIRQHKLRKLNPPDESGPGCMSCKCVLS", "assay": "Binding to HRAS by surface plasmon resonance (SPR), Single Cycle Kinetics", "conditions": "SPR"}, "[3]": {"conditions": "KD ratio, GDP-bound NRAS wild-type vs GDP-bound KRAS wild-type"}, "[4]": {"conditions": "KD ratio, GDP-bound HRAS wild-type vs GDP-bound KRAS wild-type"}}, "note": "Where a SMILES comes first, the peptide text is derived from it. Bridges are numbered along the chain shown (N, C = ends). [ ]: non-standard residue; d: D form. The star is where a group is joined. hPhe(3,5-F2-4-CF3) = N[C@@H](CCc1cc(F)c(C(F)(F)F)c(F)c1)C(=O)O; NPrPhe(4-CF3) = CCCN[C@@H](Cc1ccc(C(F)(F)F)cc1)C(=O)O; NMeGly(cPent) = CN[C@H](C(=O)O)C1CCCC1; NMeD = CN[C@@H](CC(=O)O)C(=O)O; NMeL = CN[C@@H](CC(C)C)C(=O)O; αMeS = C[C@](N)(CO)C(=O)O; Morpholide = C1CN(*)CCO1; Sar = CNCC(=O)O; Allyl = C=CC*"}
{"smiles": "CCC[C@H]1C(=O)N[C@@H]([C@@H](C)CC)C(=O)N2CCC[C@H]2C(=O)N(C)[C@H]2C/C=C\\CCN(C2=O)[C@@H](Cc2ccc(C(F)(F)F)cc2)C(=O)N(C)CC(=O)N[C@@H](CCc2ccc(C(F)(F)F)c(OC)c2)C(=O)N2C[C@H](OCC)C[C@H]2C(=O)N(C)C2(CCC2)C(=O)N(C)[C@@H](C2CCCC2)C(=O)N(C)[C@H](C(=O)N2CCCC2)CC(=O)N1C", "note": "[PP3101]", "values": [{"measurement": "NRAS/KRAS (ratio of KD value with respect to GDP-bound NRAS wild-type protein to KD value with respect to KRAS)", "setting": "[1]; GDP-bound wild-type proteins", "value": "A (a compound having 10 or more and less than 20 is denoted as A)"}, {"measurement": "HRAS/KRAS (ratio of KD value with respect to GDP-bound HRAS wild-type protein to KD value with respect to KRAS)", "setting": "[2]; GDP-bound wild-type proteins", "value": "A (a compound having 10 or more and less than 20 is denoted as A)"}]}
{"smiles": "C=CCOC[C@]1(C)NC(=O)[C@@H]2CCCN2C(=O)[C@H](CCc2cc(F)c(C(F)(F)F)c(F)c2)NC(=O)CN(C)C(=O)[C@H](Cc2ccc(C(F)(F)F)cc2)N(CCC)C(=O)CN(C)C(=O)CN(C)C(=O)[C@H]([C@@H](C)CC)NC(=O)[C@H](CC(C)C)N(C)C(=O)C[C@@H](C(=O)N2CCOCC2)N(C)C(=O)[C@H](C2CCCC2)N(C)C1=O", "note": "[PP0763] ([NMeL]I[Sar][Sar][NPrPhe(4-CF3)][Sar][hPhe(3,5-F2-4-CF3)]P[αMeS](Allyl)[NMeGly(cPent)][NMeD]-Morpholide; lactam N-11)", "values": [{"measurement": "NRAS/KRAS (ratio of KD value with respect to GDP-bound NRAS wild-type protein to KD value with respect to KRAS)", "setting": "[1]", "value": "B (a compound having 3 or more and less than 10 is denoted as B)"}, {"measurement": "HRAS/KRAS (ratio of KD value with respect to GDP-bound HRAS wild-type protein to KD value with respect to KRAS)", "setting": "[2]", "value": "B (a compound having 3 or more and less than 10 is denoted as B)"}]}
{"smiles": "CC[C@H](C)[C@@H]1NC(=O)[C@H](CC(C)C)N(C)C(=O)C[C@@H](C(=O)N2CCOCC2)N(C)C(=O)[C@H](C2CCCC2)N(C)C(=O)C2(CCC2)NC(=O)[C@@H]2C[C@@H](OC)CN2C(=O)[C@H](CCc2cc(F)c(C(F)(F)F)c(F)c2)NC(=O)CN(C)C(=O)[C@H](Cc2ccc(C(F)(F)F)cc2)N2CCCCC[C@@H](C2=O)N(C)C(=O)CN(C)C1=O", "note": "[PP1016]", "values": [{"measurement": "NRAS/KRAS (ratio of KD value with respect to NRAS to KD value with respect to KRAS)", "setting": "[1]; [3]", "value": "A (a compound having 10 or more and less than 20 is denoted as A)"}, {"measurement": "HRAS/KRAS (ratio of KD value with respect to HRAS to KD value with respect to KRAS)", "setting": "[2]; [4]", "value": "B (a compound having 3 or more and less than 10 is denoted as B)"}]}
{"smiles": "CCO[C@@H]1C[C@H]2C(=O)N(C)C3(CCC3)C(=O)N(C)[C@@H](C3CCCC3)C(=O)N(C)[C@H](C(=O)N(C)C)CC(=O)N(C)[C@@H](CC)C(=O)N[C@@H]([C@@H](C)CC)C(=O)N3CCC[C@H]3C(=O)N(C)[C@H]3C/C=C\\CCN(C3=O)[C@@H](Cc3ccc(C)cc3)C(=O)N(C)CC(=O)N[C@@H](CCc3cc(F)c(C(F)(F)F)c(F)c3)C(=O)N2C1", "note": "[PP1785]", "values": [{"measurement": "NRAS/KRAS (ratio of KD value for NRAS to KD value for KRAS)", "setting": "[1]; [3]", "value": "A (a compound having 10 or more and less than 20 is denoted as A)"}, {"measurement": "HRAS/KRAS (ratio of KD value for HRAS to KD value for KRAS)", "setting": "[2]; [4]", "value": "A (a compound having 10 or more and less than 20 is denoted as A)"}]}
{"smiles": "CC[C@H](C)[C@@H]1NC(=O)[C@@H]2CCCCc3ccc(cc3)C[C@@H](C(=O)N(C)CC(=O)N[C@@H](CCc3ccc(C(F)(F)F)c(OC)c3)C(=O)N3C[C@H](OC4CCC4)C[C@H]3C(=O)NC3(CC(C)(C)C3)C(=O)N(C)[C@@H](C3CCCC3)C(=O)N(C)[C@H](C(=O)N(C)CC)CC(=O)N2C)N2CC/C=C\\C[C@@H](C2=O)N(C)C(=O)CN(C)C1=O", "note": "[PP3079]", "values": [{"measurement": "NRAS/KRAS (ratio of KD value with respect to GDP-bound NRAS wild-type protein to KD value with respect to KRAS)", "setting": "[1]; GDP-bound wild-type proteins", "value": "A (a compound having 10 or more and less than 20 is denoted as A)"}, {"measurement": "HRAS/KRAS (ratio of KD value with respect to GDP-bound HRAS wild-type protein to KD value with respect to KRAS)", "setting": "[2]; GDP-bound wild-type proteins", "value": "B (a compound having 3 or more and less than 10 is denoted as B)"}]}
{"smiles": "CC[C@H](C)[C@@H]1NC(=O)[C@H](CC)N(C)C(=O)C[C@@H](C(=O)N(C)C)N(C)C(=O)[C@H](C2CCCC2)N(C)C(=O)C2(CC(C)(C)C2)NC(=O)[C@@H]2C[C@@H](C)CN2C(=O)[C@H](CCc2ccc(C(F)(F)F)c(Cl)c2)NC(=O)CN(C)C(=O)[C@H](Cc2ccc(C)cc2)N2CC/C=C\\C[C@@H](C2=O)N(C)C(=O)CN(C)C1=O", "note": "[PP1846]", "values": [{"measurement": "NRAS/KRAS (ratio of KD value for NRAS to KD value for KRAS)", "setting": "[1]; [3]", "value": "A (a compound having 10 or more and less than 20 is denoted as A)"}, {"measurement": "HRAS/KRAS (ratio of KD value for HRAS to KD value for KRAS)", "setting": "[2]; [4]", "value": "B (a compound having 3 or more and less than 10 is denoted as B)"}]}
{"smiles": "CC[C@H](C)[C@@H]1NC(=O)[C@H](CC(C)C)N(C)C(=O)C[C@@H](C(=O)N2CCOCC2)N(CC)C(=O)[C@H](C2CCCC2)N(C)C(=O)C2(CCCC2)NC(=O)[C@@H]2CCCN2C(=O)[C@H](CCc2cc(F)c(C(F)(F)F)c(F)c2)NC(=O)CN(C)C(=O)[C@H](Cc2ccc(C(F)(F)F)cc2)N2CCCC[C@@H](C2=O)N(C)C(=O)CN(C)C1=O", "note": "[PP0539]", "values": [{"measurement": "NRAS/KRAS (ratio of KD value with respect to GDP-bound NRAS wild-type protein to KD value with respect to KRAS)", "setting": "[1]", "value": "B (a compound having 3 or more and less than 10 is denoted as B)"}, {"measurement": "HRAS/KRAS (ratio of KD value with respect to GDP-bound HRAS wild-type protein to KD value with respect to KRAS)", "setting": "[2]", "value": "B (a compound having 3 or more and less than 10 is denoted as B)"}]}
